Results from patent US10399988B2, “4-aminopyrazolo[3,4-d]pyrimidinylazabicyclo derivatives and pharmaceutical composition comprising the same” (Daewoong Pharmaceutical Co., Ltd., priority 2016, dated 2019).

Experiments:
[1] = molecular target: BTK (Homo sapiens, UniProt Q06187); assay: Inhibitory activity against BTK (ADP-Glo + BTK Kinase enzyme system kit)
[2] = molecular target: T1, ITK (Homo sapiens, UniProt Q08881); assay: Inhibitory activity against ITK (ADP-Glo + ITK Kinase enzyme system kit); selectivity BTK vs. ITK; assay type: biochemical; conditions: for IC50: ITK enzyme 0.4 ng/uL, ATP 25 uM, luminescence, duplicate; for Selectivity (based on IC50): selectivity for the inhibitory activity of BTK vs. ITK, Equation 1
T1 construct: purchased Promega Corporation
T1 sequence (Q08881 1-620): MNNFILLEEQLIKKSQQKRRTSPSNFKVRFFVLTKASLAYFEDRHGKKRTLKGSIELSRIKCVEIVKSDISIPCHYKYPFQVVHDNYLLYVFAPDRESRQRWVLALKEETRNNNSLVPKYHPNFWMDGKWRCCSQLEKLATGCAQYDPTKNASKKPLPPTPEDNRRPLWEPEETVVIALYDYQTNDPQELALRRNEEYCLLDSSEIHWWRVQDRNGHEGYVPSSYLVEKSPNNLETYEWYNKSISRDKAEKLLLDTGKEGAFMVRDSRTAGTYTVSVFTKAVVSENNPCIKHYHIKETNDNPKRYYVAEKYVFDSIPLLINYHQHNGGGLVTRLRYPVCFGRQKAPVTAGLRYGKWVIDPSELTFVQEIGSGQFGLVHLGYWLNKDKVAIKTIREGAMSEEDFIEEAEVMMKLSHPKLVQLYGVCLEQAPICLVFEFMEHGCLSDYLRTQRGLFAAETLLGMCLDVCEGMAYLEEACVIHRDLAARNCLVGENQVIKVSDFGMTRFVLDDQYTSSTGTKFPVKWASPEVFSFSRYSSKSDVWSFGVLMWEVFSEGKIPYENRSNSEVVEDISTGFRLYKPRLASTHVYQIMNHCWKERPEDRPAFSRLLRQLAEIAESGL

Chain of BTK (Q06187 whole entry): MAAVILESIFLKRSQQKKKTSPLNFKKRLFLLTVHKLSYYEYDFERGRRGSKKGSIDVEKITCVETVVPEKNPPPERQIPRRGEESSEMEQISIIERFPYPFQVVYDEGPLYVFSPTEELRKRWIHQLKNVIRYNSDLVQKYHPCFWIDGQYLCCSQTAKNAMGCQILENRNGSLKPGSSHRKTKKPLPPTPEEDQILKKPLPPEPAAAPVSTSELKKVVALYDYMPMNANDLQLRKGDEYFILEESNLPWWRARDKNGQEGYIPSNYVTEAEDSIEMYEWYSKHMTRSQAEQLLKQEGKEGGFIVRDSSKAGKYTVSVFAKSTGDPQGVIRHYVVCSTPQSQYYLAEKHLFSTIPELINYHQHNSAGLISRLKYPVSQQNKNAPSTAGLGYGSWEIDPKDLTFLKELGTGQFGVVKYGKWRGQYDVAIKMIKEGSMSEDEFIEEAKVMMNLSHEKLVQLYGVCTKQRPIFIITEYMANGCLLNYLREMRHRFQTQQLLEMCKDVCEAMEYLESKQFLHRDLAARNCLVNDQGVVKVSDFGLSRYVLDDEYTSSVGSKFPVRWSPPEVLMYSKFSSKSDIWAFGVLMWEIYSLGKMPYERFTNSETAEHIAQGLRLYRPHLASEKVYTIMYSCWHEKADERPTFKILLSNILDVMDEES

SMILES | IC50 [1] [nM] | IC50 [2] [nM] | Selectivity (based on IC50) [2]
C=CC(=O)N1CC2CC1C(n1nc(-c3ccc(Oc4cccc(N(C)C)c4)cc3)c3c(N)ncnc31)C2 (stereo not drawn) [Ex. 42, 1-(6-(4-amino-3-(4-(3-(dimethylamino)phenoxy)phenyl)-1H-pyrazolo[3,4-d]pyrimidin-1-yl)-2-azabicyclo[2.2.1]heptan-2-yl)prop-2-en-1-one] | 3.4 | > 500 | >147
C=CC(=O)N1CC2CC1C(n1nc(-c3ccc(Oc4ccccc4)cc3F)c3c(N)ncnc31)C2 (stereo not drawn) [Ex. 35, 1-(6-(4-amino-3-(2-fluoro-4-phenoxyphenyl)-1H-pyrazolo[3,4-d]pyrimidin-1-yl)-2-azabicyclo[2.2.1]heptan-2-yl)prop-2-en-1-one] | 2.2 | 132 | 60.0
C=CC(=O)N1CC2CC1C(n1nc(-c3ccc(Oc4cccc(F)c4)cc3)c3c(N)ncnc31)C2 (stereo not drawn) [Ex. 34, 1-(6-(4-amino-3-(4-(3-fluorophenoxy)phenyl)-1H-pyrazolo[3,4-d]pyrimidin-1-yl)-2-azabicyclo[2.2.1]heptan-2-yl)prop-2-en-1-one] | 4.4 | 308 | 69.9
C#CC(=O)N1CC2CC1C(n1nc(-c3ccc(Oc4ccccc4)cc3)c3c(N)ncnc31)C2 (stereo not drawn) [Ex. 2, 1-(6-(4-amino-3-(4-phenoxyphenyl)-1H-pyrazolo[3,4-d]pyrimidin-1-yl)-2-azabicyclo[2.2.1]heptan-2-yl)prop-2-yn-1-one] | 0.8 | 26.3 | 32.9
Nc1ncnc2c1c(-c1ccc(Oc3ccccc3)cc1)nn2C1CC2CC1N(C(=O)/C=C/CN1CCCCC1)C2 (stereo not drawn) [Ex. 63, (E)-1-(6-(4-amino-3-(4-phenoxyphenyl)-1H-pyrazolo[3,4-d]pyrimidin-1-yl)-2-azabicyclo[2.2.1]heptan-2-yl)-4-(piperidin-1-yl)but-2-en-1-one] | 1.5 | > 500 | >333.3
C=CC(=O)N1CC2CC1C(n1nc(-c3ccc(C(=O)Nc4ccccn4)cc3)c3c(N)ncnc31)C2 (stereo not drawn) [Ex. 49, 4-(1-(2-acryloyl-2-azabicyclo[2.2.1]heptan-6-yl)-4-amino-1H-pyrazolo[3,4-d]pyrimidin-3-yl)-N-(pyridin-2-yl)benzamide] | 3.5 | > 500 | >142.9
C=CC(=O)N1C[C@@H]2C[C@@H]1[C@@H](n1nc(-c3ccc(C(=O)Nc4ccccn4)cc3)c3c(N)ncnc31)C2 [Ex. 69, 4-(1-((1R,4R,6S)-2-acryloyl-2-azabicyclo[2.2.1]heptan-6-yl)-4-amino-1H-pyrazolo[3,4-d]pyrimidin-3-yl)-N-(pyridin-2-yl)benzamide] | 1.3 | 235 | 181.2
C=CC(=O)N1CC2CC1C(n1nc(-c3ccc(Oc4ccccc4)cc3)c3c(N)ncnc31)C2 (stereo not drawn) [Ex. 1, 1-(6-(4-amino-3-(4-phenoxyphenyl)-1H-pyrazolo[3,4-d]pyrimidin-1-yl)-2-azabicyclo[2.2.1]heptan-2-yl)prop-2-en-1-one] | 2.1 | 189 | 89.9
C=CC(=O)N1CC2CC1C(n1nc(-c3ccc(Oc4cccc(C(F)(F)F)c4)cc3)c3c(N)ncnc31)C2 (stereo not drawn) [Ex. 43, 1-(6-(4-amino-3-(4-(3-(trifluoromethyl)phenoxy)phenyl)-1H-pyrazolo[3,4-d]pyrimidin-1-yl)-2-azabicyclo[2.2.1]heptan-2-yl)prop-2-en-1-one] | 3.1 | 268 | 86.4
C=CC(=O)N1CC2CCC1C(n1nc(-c3ccc(Oc4ccccc4)cc3)c3c(N)ncnc31)C2 (stereo not drawn) [Ex. 59, 1-(6-(4-amino-3-(4-phenoxyphenyl)-1H-pyrazolo[3,4-d]pyrimidin-1-yl)-2-azabicyclo[2.2.2]octan-2-yl)prop-2-en-1-one] | 2.8 | 110 | 39.1
C=CC(=O)N1C[C@@H]2C[C@H]1C[C@H]2n1nc(-c2ccc(Oc3ccccc3)cc2)c2c(N)ncnc21 [Ex. 14, 1-((1S,4S,5R)-5-(4-amino-3-(4-phenoxyphenyl)-1H-pyrazolo[3,4-d]pyrimidin-1-yl)-2-azabicyclo[2.2.1]heptan-2-yl)prop-2-en-1-one] | 2.6 | > 1000 | >384.6
C=CC(=O)N1CC2CC1C(n1nc(-c3ccc(S(=O)(=O)Nc4ccccc4)cc3)c3c(N)ncnc31)C2 (stereo not drawn) [Ex. 54, 4-(1-(2-acryloyl-2-azabicyclo[2.2.1]heptan-6-yl)-4-amino-1H-pyrazolo[3,4-d]pyrimidin-3-yl)-N-phenylbenzenesulfonamide] | 2.2 | > 1000 | >454.5
C=CC(=O)N1CC2CC1CC2n1nc(-c2ccc(Oc3ccccc3)cc2)c2c(N)ncnc21 (stereo not drawn) [Ex. 12, 1-(5-(4-amino-3-(4-phenoxyphenyl)-1H-pyrazolo[3,4-d]pyrimidin-1-yl)-2-azabicyclo[2.2.1]heptan-2-yl)prop-2-en-1-one] | 3.3 | > 1000 | >303.3
C#CC(=O)N1CC2CC1C(n1nc(-c3ccc(C(=O)Nc4ccccc4)cc3)c3c(N)ncnc31)C2 (stereo not drawn) [Ex. 17, 4-(4-amino-1-(2-propioloyl-2-azabicyclo[2.2.1]heptan-6-yl)-1H-pyrazolo[3,4-d]pyrimidin-3-yl)-N-phenylbenzamide] | 4.7 | > 1000 | >212.8
C=CC(=O)N1CC2CC1C(n1nc(-c3ccc(C(=O)Nc4cccc(Cl)c4)cc3)c3c(N)ncnc31)C2 (stereo not drawn) [Ex. 48, 4-(1-(2-acryloyl-2-azabicyclo[2.2.1]heptan-6-yl)-4-amino-1H-pyrazolo[3,4-d]pyrimidin-3-yl)-N-(3-chlorophenyl)benzamide] | 4.7 | 401 | 85.3

Now from value to compound:

IC50 [1] [nM] | IC50 [2] [nM] | Selectivity (based on IC50) [2] | SMILES
0.9 | 133 | 147.7 | C=CC(=O)N1CC2CC1C(n1nc(-c3ccc(C(=O)Nc4cc(C#N)ccn4)cc3)c3c(N)ncnc31)C2 (stereo not drawn) [Ex. 71, 4-(1-(2-acryloyl-2-azabicyclo[2.2.1]heptan-6-yl)-4-amino-1H-pyrazolo[3,4-d]pyrimidin-3-yl)-N-(4-cyanopyridin-2-yl)benzamide]
2.4 | 176 | 73.1 | C=CC(=O)N1CC2CC1C(n1nc(-c3ccc(C(=O)Nc4cc(C)ccn4)cc3)c3c(N)ncnc31)C2 (stereo not drawn) [Ex. 68, 4-(1-(2-acryloyl-2-azabicyclo[2.2.1]heptan-6-yl)-4-amino-1H-pyrazolo[3,4-d]pyrimidin-3-yl)-N-(4-methylpyridin-2-yl)benzamide]
2.8 | 229 | 81.7 | N#CC(=CC1CC1)C(=O)N1C[C@@H]2C[C@@H]1[C@@H](n1nc(-c3ccc(C(=O)Nc4cc(F)ccn4)cc3F)c3c(N)ncnc31)C2 [Ex. 83, 4-(4-amino-1-((1R,4R,6S)-2-(2-cyano-3-cyclopropylacryloyl)-2-azabicyclo[2.2.1]heptan-6-yl)-1H-pyrazolo[3,4-d]pyrimidin-3-yl)-3-fluoro-N-(4-fluoropyridin-2-yl)benzamide]
1.2 | 32.1 | 26.8 | C=CC(=O)N1C[C@@H]2C[C@H]1[C@@H](n1nc(-c3ccc(C(=O)Nc4ccccn4)cc3Cl)c3c(N)ncnc31)C2 [Ex. 80, 4-(1-((1S,4R,6S)-2-acryloyl-2-azabicyclo[2.2.1]heptan-6-yl)-4-amino-1H-pyrazolo[3,4-d]pyrimidin-3-yl)-3-chloro-N-(pyridin-2-yl)benzamide]
3.6 | > 200 | 55.6 | N#CC(=CC1CC1)C(=O)N1C[C@@H]2C[C@@H]1[C@@H](n1nc(-c3ccc(C(=O)Nc4ccccn4)cc3F)c3c(N)ncnc31)C2 [Ex. 82, 4-(4-amino-1-((1R,4R,6S)-2-(2-cyano-3-cyclopropylacryloyl)-2-azabicyclo[2.2.1]heptan-6-yl)-1H-pyrazolo[3,4-d]pyrimidin-3-yl)-3-fluoro-N-(pyridin-2-yl)benzamide]
4 | 305 | 76.2 | N#CC(=CC1CC1)C(=O)N1C[C@H]2CC(n3nc(-c4ccc(C(=O)Nc5ccccn5)cc4)c4c(N)ncnc43)[C@H]1C2 (stereo partly drawn) [Ex. 75, 4-(4-amino-1-((1R,4R)-2-(2-cyano-3-cyclopropylacryloyl)-2-azabicyclo[2.2.1]heptan-6-yl)-1H-pyrazolo[3,4-d]pyrimidin-3-yl)-N-(pyridin-2-yl)benzamide]
0.5 | 54.1 | 108.2 | C=CC(=O)N1CC2CC1C(n1nc(-c3ccc(C(=O)Nc4cc(F)ccn4)cc3)c3c(N)ncnc31)C2 (stereo not drawn) [Ex. 67, 4-(1-(2-acryloyl-2-azabicyclo[2.2.1]heptan-6-yl)-4-amino-1H-pyrazolo[3,4-d]pyrimidin-3-yl)-N-(4-fluoropyridin-2-yl)benzamide]
